One data set has as its system zebrafish cataract. The data set is described as follows: UVC-induced zebrafish cataract test. The class given is in vivo. The method, then:
Zebrafish were randomly grouped (12 for each group) into blank control group, UVC irradiation group (300 μJ/cm^2) and UVC irradiation+treating group with A-2 at 0.495, 0.99, and 4.95 mg/ml three dosages or with compound 1 at 0.1 and 1.0 mM two dosages. The zebrafish were pre-fed with A-2 or compound 1 for one week, then subjected to UVC irradiation to observe the crystal change of the zebrafish daily. Before irradiating with UVC, the zebrafish is under anesthesia to expose only its eye to UVC (300 μJ/cm^2) for about 3 minutes, consecutively holding for seven days. The zebrafish eyes were observed every day. The severity of zebrafish cataract was scored from 1 to 3, depending on the clear level of the crystal body, in which the higher score represents the more turbidity of the crystal body. The scores are then plotted.

The next data set deals with RGC-5 cells. The class given is cell-based. Set-up: toxic reaction / protective activity: dose or concentration left out as unconfirmed. The note with it: for protection effect (cell viability): 500 μM hydrogen peroxide, 24 h pre-treatment. On the procedure:
(§1) The present experiment took human retinal cell (ARPE-19) and rat retinal ganglion cells (RGC-5) as model cell lines. ARPE-19 cells were cultured in DMEM-F12 medium containing 10% fetal bovine serum (FBS), 0.2% sodium bicarbonate and antibiotics (penicillin 100 units/ml, streptomycin 100 μg/ml); RGC-5 were cultured in DMEM medium containing 10% fetal bovine serum (FBS) and antibiotics (penicillin 100 units/ml, streptomycin 100 μg/ml).
(§2) ARPE-19 and RGC-5 cells were seeded in 96-well plate. After 1 day, the cells were pre-treated with different concentrations of Dendrobii Caulis extract (A or A-2) or compounds 1-4 for 24 hours, and then exposed to (1) hydrogen peroxide (H2O2; 500 μM)) or (2) hypoxic environment or (3) ultraviolet (UV) irradiation (30 μJ/cm^2; three consecutive shots, for 60 seconds each with 60 second intervals, to trigger cell death. After 24-h culture, medium was removed and replaced with 10% precooled trichloroacetic acid (TCA) to fix cells at 4° C. for 1 h, then washed with ddH2O and dried. Next, 0.4% SRB 100 μl (w/v, in 1% acetic acid) was added to each well to stain the cells for 60 minutes, then washed several times with 1% acetic acid and dried plate.—The SRB in cells was dissolved in 150 μl of 10 mM Tris-HCl and measured the absorbance at 540 nm in an ELISA reader. The survival rate was calculated by comparing each treatment with the untreated control group as the 100% survival rate.

The subject of another data set is ARPE-19 cells. The class given is cell-based. The note with it: for protection effect (cell viability): 500 μM hydrogen peroxide, 24 h pre-treatment. Set-up: protective activity / toxic reaction: dose or concentration left out as unconfirmed. The method, then: as §1, §2
A further data set relates to optic nerve cell strains. The note with it: some studies; cited from earlier work.
In another data set the test system is retinal damage. The note with it: absence of oxygen; recent study; cited from earlier work.
Where [1] appears, read: 1-10 mM, hydrogen peroxide, hypoxia or UV treatment.
Setting [2] is: hydrogen peroxide, hypoxia or UV irradiation.
Where [3] appears, read: hydrogen peroxide, hypoxia or UV treatment.
Where [4] appears, read: hydrogen peroxide and ultraviolet light.

Where two headings read alike, the source gives them in different places.

As for `CC(C)(O)[C@H]1C2C(=O)OC1[C@@H](O)[C@]1(C)C2CC[C@H]1COC1OC(CO)C(O)C(O)C1O` (stereo partly drawn) [compound 1, 2β, 3β, 11, 12-tetrahydroxypicrotoxan-3(15)-olide 11-O-β-D-glucopyranoside], the “occurrence of UV-induced cataract” value in the data set on zebrafish cataract (1 mM, fourth day) is recorded as “almost no cataract occurred”; in the data set on zebrafish cataract (0.1 and 1.0 mM, pre-fed one week), “can significantly reduce the occurrence of zebrafish cataract”. For the same molecule, the toxic reaction entry in the data set on RGC-5 cells and in the data set with ARPE-19 cells was “no toxic reaction” throughout. Moreover, the “protection effect (cell viability)” value in the data set with RGC-5 cells (hypoxia or UV irradiation) and in the data set with ARPE-19 cells (hypoxia or UV irradiation) was “can protect” each time. In addition, the “concentration dependence of protective activity” value in the data set with RGC-5 cells (setting [1]) and in the data set with ARPE-19 cells (setting [1]) was “concentration-dependent protective activity” in each case. Also, the “protective effect compared with lutein” value in the data set with RGC-5 cells (setting [2]) and in the data set with ARPE-19 cells (setting [2]) was “superior to lutein” in each case. Further, the protective activity result in the data set on RGC-5 cells (setting [3]) and with ARPE-19 cells (setting [3]) was “more than 80%” throughout.
For the molecule `CC(C)(O)[C@H]1C2C(=O)OC1[C@@H](O)[C@]1(C)C2CC[C@H]1CO` (stereo partly drawn) [compound 2, 2β, 3β, 11, 12-tetrahydroxypicrotoxan-3 (15)-olide], in the data set with RGC-5 cells (setting [4]), the “protection (cell viability)” value is on record as “can also protect” and the “protective effect compared with lutein” value is “comparable to lutein”. For the same molecule, in the data set on ARPE-19 cells (setting [4]), the “protection (cell viability)” value is “can also protect” and the “protective effect compared with lutein” value is reported as “comparable to lutein”.
For the molecule `CC(C)[C@@H]1[C@H]2OC(=O)[C@@H]1[C@@H]1CC[C@@H]3CN(C)[C@H]2[C@@]31C` [compound 3, dendrobine], the “protection effect (cell viability)” value in the data set on RGC-5 cells (hypoxia or UV irradiation) and in the data set on ARPE-19 cells (hypoxia or UV irradiation) was “does not show enough protective activity” throughout.
Take `COc1cc(CCc2cc(OC)c(O)c(OC)c2)ccc1O` [moscatilin]: the “toxicity to optic nerve cell strains” value in the data set with optic nerve cell strains is “toxic”. In addition, the “protection of retinal damage” value in the data set with retinal damage is recorded as “can protect retinal damage in the absence of oxygen”.

Values taken from patent US11576918B2, “Pharmaceutical composition and extract of Dendrobii Caulis with eye care effect and uses of preparing the same thereof” (AMX Pharma Inc., priority 2019, dated 2023).
